{
  "source": "the supplement of paper PMC10307832",
  "experiment_in_all_cases": "relative viability (nuclei count vs DMSO), 5 days (fraction); higher = more cells survive",
  "key": {"201T": {"tested_on": "201T", "outline": "(§1)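 Five library-drug doses in √10 steps were combined with a fixed anchor-drug dose, or a single drug was given alone, by pin tool to lung cancer cell lines in 1536-well plates the day after seeding. Nuclei were stained and counted after 5 days. Relative viability is the nuclei count in treated wells over that in vehicle wells, taken as the median of duplicate plates.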"}, "BEN": {"tested_on": "BEN", "outline": "as §1"}, "COR-L 105": {"tested_on": "COR-L 105", "outline": "as §1"}, "EMC-BAC-2": {"tested_on": "EMC-BAC-2", "outline": "as §1"}, "H3255": {"tested_on": "H3255", "outline": "as §1"}, "HARA": {"tested_on": "HARA", "outline": "as §1"}, "HCC-78": {"tested_on": "HCC-78", "outline": "as §1"}, "HOP-62": {"tested_on": "HOP-62", "outline": "as §1"}, "LC-2-ad": {"tested_on": "LC-2-ad", "outline": "as §1"}, "LOU-NH91": {"tested_on": "LOU-NH91", "outline": "as §1"}, "LU99A": {"tested_on": "LU99A", "outline": "as §1"}, "LXF-289": {"tested_on": "LXF-289", "outline": "as §1"}, "NCI-H1395": {"tested_on": "NCI-H1395", "outline": "as §1"}, "NCI-H1563": {"tested_on": "NCI-H1563", "outline": "as §1"}, "NCI-H1993": {"tested_on": "NCI-H1993", "outline": "as §1"}, "NCI-H2087": {"tested_on": "NCI-H2087", "outline": "as §1"}, "NCI-H2126": {"tested_on": "NCI-H2126", "outline": "as §1"}, "NCI-H2170": {"tested_on": "NCI-H2170", "outline": "as §1"}, "NCI-H650": {"tested_on": "NCI-H650", "outline": "as §1"}, "RERF-LC-KJ": {"tested_on": "RERF-LC-KJ", "outline": "as §1"}, "SK-MES-1": {"tested_on": "SK-MES-1", "outline": "as §1"}, "SW 900": {"tested_on": "SW 900", "outline": "as §1"}, "UMC-11": {"tested_on": "UMC-11", "outline": "as §1"}},
  "data": [
    {"smiles": "CN1CCN(CCOc2cc(OC3CCOCC3)c3c(Nc4c(Cl)ccc5c4OCO5)ncnc3c2)CC1", "note": "[Saracatinib] + COc1cccc2cc(-c3nc([C@H]4CC[C@H](C(=O)O)CC4)n4ncnc(N)c34)[nH]c12 [OSI-027] (partner 0.5 µM)", "values": [
      {"measurement": "relative viability", "setting": "201T; first compound 0.02 µM", "result": 0.725},
      {"measurement": "relative viability", "setting": "201T; first compound 0.2 µM", "result": 0.53},
      {"measurement": "relative viability", "setting": "201T; first compound 0.6325 µM", "result": 0.752},
      {"measurement": "relative viability", "setting": "201T; first compound 2 µM", "result": 0.445},
      {"measurement": "relative viability", "setting": "BEN; first compound 0.02 µM", "result": 0.284},
      {"measurement": "relative viability", "setting": "BEN; first compound 0.6325 µM", "result": 0.309},
      {"measurement": "relative viability", "setting": "BEN; first compound 2 µM", "result": 0.261},
      {"measurement": "relative viability", "setting": "COR-L 105; first compound 0.02 µM", "result": 0.837},
      {"measurement": "relative viability", "setting": "COR-L 105; first compound 0.2 µM", "result": 0.628},
      {"measurement": "relative viability", "setting": "COR-L 105; first compound 0.6325 µM", "result": 0.566},
      {"measurement": "relative viability", "setting": "COR-L 105; first compound 2 µM", "result": 0.221},
      {"measurement": "relative viability", "setting": "EMC-BAC-2; first compound 0.02 µM", "result": 0.412},
      {"measurement": "relative viability", "setting": "EMC-BAC-2; first compound 0.2 µM", "result": 0.322},
      {"measurement": "relative viability", "setting": "EMC-BAC-2; first compound 0.6325 µM", "result": 0.355},
      {"measurement": "relative viability", "setting": "EMC-BAC-2; first compound 2 µM", "result": 0.297},
      {"measurement": "relative viability", "setting": "H3255; first compound 0.02 µM", "result": 0.587},
      {"measurement": "relative viability", "setting": "H3255; first compound 0.2 µM", "result": 0.589},
      {"measurement": "relative viability", "setting": "H3255; first compound 0.6325 µM", "result": 0.542},
      {"measurement": "relative viability", "setting": "H3255; first compound 2 µM", "result": 0.284},
      {"measurement": "relative viability", "setting": "HARA; first compound 0.02 µM", "result": 0.544},
      {"measurement": "relative viability", "setting": "HARA; first compound 0.2 µM", "result": 0.263},
      {"measurement": "relative viability", "setting": "HARA; first compound 0.6325 µM", "result": 0.483},
      {"measurement": "relative viability", "setting": "HARA; first compound 2 µM", "result": 0.205},
      {"measurement": "relative viability", "setting": "HCC-78; first compound 0.02 µM", "result": 0.426},
      {"measurement": "relative viability", "setting": "HCC-78; first compound 0.6325 µM", "result": 0.379},
      {"measurement": "relative viability", "setting": "HCC-78; first compound 2 µM", "result": 0.317},
      {"measurement": "relative viability", "setting": "HOP-62; first compound 0.02 µM", "result": 0.836},
      {"measurement": "relative viability", "setting": "HOP-62; first compound 0.2 µM", "result": 0.796},
      {"measurement": "relative viability", "setting": "HOP-62; first compound 0.6325 µM", "result": 0.794},
      {"measurement": "relative viability", "setting": "HOP-62; first compound 2 µM", "result": 0.773},
      {"measurement": "relative viability", "setting": "LC-2-ad; first compound 0.02 µM", "result": 0.844},
      {"measurement": "relative viability", "setting": "LC-2-ad; first compound 0.2 µM", "result": 0.804},
      {"measurement": "relative viability", "setting": "LC-2-ad; first compound 0.6325 µM", "result": 0.881},
      {"measurement": "relative viability", "setting": "LC-2-ad; first compound 2 µM", "result": 0.728},
      {"measurement": "relative viability", "setting": "LOU-NH91; first compound 0.02 µM", "result": 0.756},
      {"measurement": "relative viability", "setting": "LOU-NH91; first compound 0.2 µM", "result": 0.556},
      {"measurement": "relative viability", "setting": "LOU-NH91; first compound 0.6325 µM", "result": 0.544},
      {"measurement": "relative viability", "setting": "LOU-NH91; first compound 2 µM", "result": 0.413},
      {"measurement": "relative viability", "setting": "LU99A; first compound 0.02 µM", "result": 0.317},
      {"measurement": "relative viability", "setting": "LU99A; first compound 0.2 µM", "result": 0.283},
      {"measurement": "relative viability", "setting": "LU99A; first compound 0.6325 µM", "result": 0.303},
      {"measurement": "relative viability", "setting": "LU99A; first compound 2 µM", "result": 0.277},
      {"measurement": "relative viability", "setting": "LXF-289; first compound 0.02 µM", "result": 0.765},
      {"measurement": "relative viability", "setting": "LXF-289; first compound 0.2 µM", "result": 0.735},
      {"measurement": "relative viability", "setting": "LXF-289; first compound 0.6325 µM", "result": 0.744},
      {"measurement": "relative viability", "setting": "LXF-289; first compound 2 µM", "result": 0.677},
      {"measurement": "relative viability", "setting": "NCI-H1395; first compound 0.02 µM", "result": 0.618},
      {"measurement": "relative viability", "setting": "NCI-H1395; first compound 0.2 µM", "result": 0.613},
      {"measurement": "relative viability", "setting": "NCI-H1395; first compound 0.6325 µM", "result": 0.583},
      {"measurement": "relative viability", "setting": "NCI-H1395; first compound 2 µM", "result": 0.485},
      {"measurement": "relative viability", "setting": "NCI-H1563; first compound 0.02 µM", "result": 0.703},
      {"measurement": "relative viability", "setting": "NCI-H1563; first compound 0.2 µM", "result": 0.663},
      {"measurement": "relative viability", "setting": "NCI-H1563; first compound 0.6325 µM", "result": 0.645},
      {"measurement": "relative viability", "setting": "NCI-H1563; first compound 2 µM", "result": 0.711},
      {"measurement": "relative viability", "setting": "NCI-H1993; first compound 0.02 µM", "result": 0.54},
      {"measurement": "relative viability", "setting": "NCI-H1993; first compound 0.2 µM", "result": 0.508},
      {"measurement": "relative viability", "setting": "NCI-H1993; first compound 0.6325 µM", "result": 0.497},
      {"measurement": "relative viability", "setting": "NCI-H1993; first compound 2 µM", "result": 0.525},
      {"measurement": "relative viability", "setting": "NCI-H2087; first compound 0.02 µM", "result": 0.609},
      {"measurement": "relative viability", "setting": "NCI-H2087; first compound 0.2 µM", "result": 0.393},
      {"measurement": "relative viability", "setting": "NCI-H2087; first compound 0.6325 µM", "result": 0.953},
      {"measurement": "relative viability", "setting": "NCI-H2087; first compound 2 µM", "result": 0.742},
      {"measurement": "relative viability", "setting": "NCI-H2126; first compound 0.02 µM", "result": 0.8},
      {"measurement": "relative viability", "setting": "NCI-H2126; first compound 0.2 µM", "result": 0.672},
      {"measurement": "relative viability", "setting": "NCI-H2126; first compound 0.6325 µM", "result": 0.662},
      {"measurement": "relative viability", "setting": "NCI-H2126; first compound 2 µM", "result": 0.589},
      {"measurement": "relative viability", "setting": "NCI-H2170; first compound 0.02 µM", "result": 0.694},
      {"measurement": "relative viability", "setting": "NCI-H2170; first compound 0.2 µM", "result": 0.459},
      {"measurement": "relative viability", "setting": "NCI-H2170; first compound 0.6325 µM", "result": 0.811},
      {"measurement": "relative viability", "setting": "NCI-H2170; first compound 2 µM", "result": 0.53},
      {"measurement": "relative viability", "setting": "NCI-H650; first compound 0.02 µM", "result": 0.602},
      {"measurement": "relative viability", "setting": "NCI-H650; first compound 0.2 µM", "result": 0.504},
      {"measurement": "relative viability", "setting": "NCI-H650; first compound 0.6325 µM", "result": 0.524},
      {"measurement": "relative viability", "setting": "NCI-H650; first compound 2 µM", "result": 0.493},
      {"measurement": "relative viability", "setting": "RERF-LC-KJ; first compound 0.02 µM", "result": 0.575},
      {"measurement": "relative viability", "setting": "RERF-LC-KJ; first compound 0.2 µM", "result": 0.569},
      {"measurement": "relative viability", "setting": "RERF-LC-KJ; first compound 0.6325 µM", "result": 0.546},
      {"measurement": "relative viability", "setting": "RERF-LC-KJ; first compound 2 µM", "result": 0.52},
      {"measurement": "relative viability", "setting": "SK-MES-1; first compound 0.02 µM", "result": 0.609},
      {"measurement": "relative viability", "setting": "SK-MES-1; first compound 0.2 µM", "result": 0.603},
      {"measurement": "relative viability", "setting": "SK-MES-1; first compound 0.6325 µM", "result": 0.475},
      {"measurement": "relative viability", "setting": "SK-MES-1; first compound 2 µM", "result": 0.234},
      {"measurement": "relative viability", "setting": "SW 900; first compound 0.02 µM", "result": 0.616},
      {"measurement": "relative viability", "setting": "SW 900; first compound 0.2 µM", "result": 0.559},
      {"measurement": "relative viability", "setting": "SW 900; first compound 0.6325 µM", "result": 0.575},
      {"measurement": "relative viability", "setting": "SW 900; first compound 2 µM", "result": 0.443},
      {"measurement": "relative viability", "setting": "UMC-11; first compound 0.02 µM", "result": 0.503},
      {"measurement": "relative viability", "setting": "UMC-11; first compound 0.6325 µM", "result": 0.453},
      {"measurement": "relative viability", "setting": "UMC-11; first compound 2 µM", "result": 0.339}
    ]}
  ]
}
